Target: T1, FVIIa (Homo sapiens, UniProt P08709)
T1 construct: FVIIa (ADI#407, final 10 nM); purchased ADI #407 (FVIIa); #4500 (tissue factor)
Assay: FVIIa inhibitory activity (chromogenic substrate S-2288, FVIIa/tissue factor)
Type: biochemical
Conditions: FVIIa 10 nM, tissue factor 10 nM, 2 mM CaCl2, 0.5 mM S-2288, 37° C., pH 7.5
Method: 10 μl of the compound of the present invention in 10% DMSO were added to 65 μl of the buffer solution including FVIIa (ADI#407, final 10 nM), tissue factor (ADI#4500, final 10 nM) and calcium chloride. The mixture was incubated for 10 minutes at 37° C., then 25 μl of 2 mM H-D-Ile-Pro-Arg-pNA (Chromogenix S-2288) was added (total volume 100 μl). The absorbance was measured at 405 nm at regular time intervals, and an initial velocity was calculated. The control value was measured with 10% of DMSO. Inhibitory activity was expressed as a 50% inhibition of control (IC50).
The final concentration of calcium chloride and S-2288 were 2 mM and 0.5 mM respectively. The buffer solution consisted of 50 mM tris-hydrochloric acid buffer (pH 7.5) containing 0.2% PEG6000 and 150 mM sodium chloride.

T1 sequence (P08709 213-466 limits assumed): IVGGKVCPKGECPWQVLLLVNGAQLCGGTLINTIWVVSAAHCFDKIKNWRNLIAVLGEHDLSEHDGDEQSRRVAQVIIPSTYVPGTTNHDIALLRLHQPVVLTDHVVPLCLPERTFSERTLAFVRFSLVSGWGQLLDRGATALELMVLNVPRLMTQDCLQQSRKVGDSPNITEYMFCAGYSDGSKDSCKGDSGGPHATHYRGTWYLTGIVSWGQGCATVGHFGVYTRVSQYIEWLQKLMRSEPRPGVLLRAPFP
T1 sequence (P08709 61-212 limits assumed): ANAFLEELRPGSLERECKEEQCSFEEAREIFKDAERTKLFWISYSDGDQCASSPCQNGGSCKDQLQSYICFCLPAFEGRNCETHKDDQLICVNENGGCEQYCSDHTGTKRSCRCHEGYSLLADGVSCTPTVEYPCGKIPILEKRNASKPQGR
T1 sequence (P13726 33-295 partner): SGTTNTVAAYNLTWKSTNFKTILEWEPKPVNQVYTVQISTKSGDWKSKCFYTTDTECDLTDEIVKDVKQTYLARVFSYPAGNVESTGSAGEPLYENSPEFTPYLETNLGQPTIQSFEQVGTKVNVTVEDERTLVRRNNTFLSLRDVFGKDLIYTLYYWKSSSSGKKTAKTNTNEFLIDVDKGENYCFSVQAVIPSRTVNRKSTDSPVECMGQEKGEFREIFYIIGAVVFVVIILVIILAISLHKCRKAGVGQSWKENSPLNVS

SMILES | IC50 [nM]
CC(C)CNC(=O)c1ccc(-c2cc3ccccc3cc2C(=O)Nc2ccc(C(=N)N)cc2)c(C(=O)O)c1 [Example 19(47), 2-(3-(4-amidinophenylcarbamoyl)naphthalen-2-yl)-5-((2-methylpropyl)carbamoyl)benzoic acid methanesulfonate] | 12
COc1ccc(-c2ccc(C(=O)N[C@H](CO)C(C)(C)C)cc2C(=O)O)c(C(=O)Nc2ccc(C(=N)N)cc2)n1 [Example 46, 2-[2-(4-amidinophenylcarbamoyl)-6-methoxy-3-pyridyl]-5-[(1(S)-hydroxymethyl-2,2-dimethylpropyl)carbamoyl]benzoic acid methanesulfonate] | 13
